This is an account of results in patent US8834910B2, “Sustained release dispenser comprising two or more sex pheromone substances” (Shin-Etsu Chemical Co., Ltd., priority 2003, dated 2014).

A short description of the data set: Vapor pressure by the gas flow method (OECD guideline). The class given is physicochemical. Particulars: head: 20° C.; text: gas flow method at 25° C. Here is the method:
Chemical structure, relation with a target insect and carbon number of each component are listed in the pest control of the pear and peach in Japan. The vapor pressure was measured by the gas flow method at 25° C. according to the “Addendum to the OECD chemical test guideline, issues 7 and 8” (Adopted on Jul. 27, 1995).
Consider `CCC(C)CCCCCCCCCOC(C)=O` (stereo not drawn) [10-methyldodecyl acetate], for which the “Vapor pressure (20° C.) (Pa)” value is recorded as 0.186 Pa. With `C=CCCCCCCCCCCOC(C)=O` [11-dodecenyl acetate], the “Vapor pressure (20° C.) (Pa)” value came out at 0.246 Pa. With `CCC/C=C\CCCCCCCO` [Z-8-dodecene-1-ol] the figure was 0.980 Pa; with `CCC/C=C\CCCCCCCOC(C)=O` [Z-8-dodecenyl acetate], 0.267 Pa; with `CC/C=C\CCCCCCCCOC(C)=O` [Z-9-dodecenyl acetate], 0.267 Pa. The figure for `CCCC/C=C\CCCCCCCCOC(C)=O` [Z-9-tetradecenyl acetate] is 0.100 Pa; for `CC/C=C\CCCCCCCCCCO` [Z-11-tetradecene-1-ol] it is 0.070 Pa; for `CC/C=C\CCCCCCCCCCOC(C)=O` [Z-11-tetradecenyl acetate] it is 0.100 Pa.

With `CCCCCC/C=C\CCC(=O)CCCCCCCCC` [Z-13-icosen-10-one], the “Vapor pressure (20° C.) (Pa)” value is 0.005 Pa.
